In this assay the target is Bovine Serum Albumim (BSA) (Bos taurus, UniProt P02769). Put plainly: Pyranine fluorescence in BSA solution: replacement of pyranine from BSA binding sites by added surfactant. The settings on record: for ratio of the fluorescence intensities 509 nm / 426 nm: no surfactant; for ratio of the fluorescence intensities from the deprotonated and protonated state (509 nm / 426 nm): pyranine 1.0×10^−8 M in 50 mM Hepes buffer pH 6.7, BSA 2.5 mg/ml, surfactant added at weight fraction 4×10^−5. As to the method:
Fluorescence spectra of pyranine in solutions and on skin were obtained using a Perkin Elmer LS50B fluorometer. In the case of spectra taken on skin, the fiber optic probe accessory was used.
All spectra were taken at pyranine concentrations of 1.0×10^−8 M in 50 mM Hepes buffer (aqueous buffer solution with pH 6.7). Bovine Serum Albumim (BSA) concentrations were 2.5 mg/ml. Surfactant was added at weight fractions of 4×10^−5.
In order to test the applicability of pyranine fluorescence to monitor the binding of surfactants to proteins, applicants studied the effect of added surfactant on the fluorescence spectrum of aqueous solutions of pyranine and BSA. […] This effect can be explained by the replacement of pyranine molecules bound to BSA by SDS molecules leading to an increased concentration of pyranine in free solution and therefore a relative increase in intensity of the fluorescence from the deprotonated state. The ratio of the fluorescence intensities from the deprotonated and protonated site is a measure of the ability of a surfactant to replace pyranine from BSA binding sites.

Chain of Bovine Serum Albumim (BSA) (P02769 25-607): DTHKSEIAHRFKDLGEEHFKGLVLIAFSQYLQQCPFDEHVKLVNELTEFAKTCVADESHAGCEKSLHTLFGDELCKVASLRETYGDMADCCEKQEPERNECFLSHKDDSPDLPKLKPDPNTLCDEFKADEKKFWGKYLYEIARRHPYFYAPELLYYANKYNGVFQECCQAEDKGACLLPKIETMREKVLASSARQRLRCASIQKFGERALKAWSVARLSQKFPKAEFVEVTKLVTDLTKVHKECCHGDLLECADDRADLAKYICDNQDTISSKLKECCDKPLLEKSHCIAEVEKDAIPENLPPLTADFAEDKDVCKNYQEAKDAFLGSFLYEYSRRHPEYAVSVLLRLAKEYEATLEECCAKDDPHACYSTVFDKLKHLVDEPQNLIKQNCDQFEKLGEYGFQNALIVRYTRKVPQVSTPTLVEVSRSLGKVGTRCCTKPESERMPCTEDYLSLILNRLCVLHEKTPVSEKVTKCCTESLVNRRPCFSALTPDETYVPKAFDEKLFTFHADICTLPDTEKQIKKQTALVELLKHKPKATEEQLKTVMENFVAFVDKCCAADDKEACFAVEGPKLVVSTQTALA

Turning to `O=S(=O)(O)c1cc(O)c2ccc3c(S(=O)(=O)O)cc(S(=O)(=O)O)c4ccc1c2c34` [Pyranine, 8-hydroxyl-1 ,3,6-pyrene-trisulfonic acid], the “ratio of the fluorescence intensities 509 nm / 426 nm” value by setting is: (pyranine 1.0×10^−8 M in 50 mM Hepes buffer pH 6.7, no BSA) 8.03; (pyranine 1.0×10^−8 M in 50 mM Hepes buffer pH 6.7 with BSA 2.5 mg/ml) 1.17.

In the case of `CCCCCCCCCCCCOS(=O)(=O)[O-].[Na+]` [SDS, sodium dodecyl sulphate], the “ratio of the fluorescence intensities from the deprotonated and protonated state (509 nm / 426 nm)” value (“ratio … (509 nm / 426 nm)” below) came to 2.23. For the setting “50 mM Hepes buffer, 2.5 mg/ml BSA, 4×10^−5 weight fraction SDS”, the “effect of added surfactant on the fluorescence spectrum of pyranine and BSA (FIG. 2)” value is recorded as “significant increase of the relative intensity of the fluorescence from the deprotonated state”.

In the case of `CCCCCCCCCCCC(=O)[O-].[Na+]` [Sodium Laurate], the “ratio … (509 nm / 426 nm)” value came to 2.13.

Cocamilopropyl Betaine: the “ratio … (509 nm / 426 nm)” value is on record as 1.56.

Turning to Sodiumlauryl Ether Sulfate, the “ratio … (509 nm / 426 nm)” value was found to be 2.12.

alkylpolyglycoside [APG]: the “ratio … (509 nm / 426 nm)” value is on record as 1.34.
